The text below walks through data of article PMC10404626 (The Journal of Biological Chemistry, 2023).

The target of assay [1] is T1, Btbc1 (bovine heart mitochondrial cyt bc1, Complex III) (Bos taurus, UniProt P00157+P13272). The note with it: cited from earlier work; for incubation time to reach full inhibitory capacity: classic compounds, typical.
Assay [2] deals with T2, Rsbc1 (cyt bc1 from Rhodobacter sphaeroides) (Cereibacter sphaeroides, UniProt Q02761+Q02762).
T2 sequence (Q02761 1-445): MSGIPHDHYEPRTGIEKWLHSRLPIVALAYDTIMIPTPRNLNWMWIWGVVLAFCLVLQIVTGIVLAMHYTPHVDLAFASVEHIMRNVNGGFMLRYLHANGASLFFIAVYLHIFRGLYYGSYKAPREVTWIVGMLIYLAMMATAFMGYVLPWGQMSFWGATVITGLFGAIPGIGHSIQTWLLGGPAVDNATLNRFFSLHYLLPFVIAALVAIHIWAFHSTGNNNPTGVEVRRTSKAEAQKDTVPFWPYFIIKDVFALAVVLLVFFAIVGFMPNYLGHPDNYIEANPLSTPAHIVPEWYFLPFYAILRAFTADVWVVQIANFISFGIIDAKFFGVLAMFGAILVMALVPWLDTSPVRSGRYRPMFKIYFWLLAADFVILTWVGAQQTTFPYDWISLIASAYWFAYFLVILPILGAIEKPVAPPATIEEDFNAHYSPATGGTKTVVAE
T2 sequence (Q02762 1-187): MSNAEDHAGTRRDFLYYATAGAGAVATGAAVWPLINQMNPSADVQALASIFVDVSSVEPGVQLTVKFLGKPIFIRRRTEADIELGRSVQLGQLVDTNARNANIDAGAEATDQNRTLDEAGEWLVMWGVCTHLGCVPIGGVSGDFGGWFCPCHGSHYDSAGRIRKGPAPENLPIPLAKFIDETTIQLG
T2 sequence (Q02760 23-285 partner): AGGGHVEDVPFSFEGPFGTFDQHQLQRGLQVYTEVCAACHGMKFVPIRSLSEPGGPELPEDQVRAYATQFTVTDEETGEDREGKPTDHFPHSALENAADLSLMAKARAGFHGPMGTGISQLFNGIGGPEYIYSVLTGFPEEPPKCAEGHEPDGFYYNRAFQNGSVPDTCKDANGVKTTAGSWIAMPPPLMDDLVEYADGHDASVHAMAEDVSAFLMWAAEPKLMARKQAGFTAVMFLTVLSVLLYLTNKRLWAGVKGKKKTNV
Conditions: read-out: half-maximum inhibition (IC50); previous work; cited from earlier work.

The subject of assay [3] is yeast cyt b L275F mutation. Conditions: cited from earlier work.
The test system of assay [4] is P. falciparum cyt b mutant parasites (F264L, A122T, Y268S). The note with it: cyt b Y268S mutant parasites of the 106/1 line; cited from earlier work.
The target of assay [5] is T1, Btbc1 (bovine heart mitochondrial cyt bc1, Complex III). The assay is described as follows: Inhibition of bovine heart mitochondrial cyt bc1 activity. It counts as biochemical. Conditions: IC50, incubation time 5 minutes; cyt c reduction.
For assay [6], the system named is wild-type P. falciparum-infected erythrocytes. Conditions: cited from earlier work.

Like-named read-outs stand apart in the source and are kept apart here.

As a reminder, the IC50 is the concentration that gives 50% inhibition. In the case of `C[C@@]1(c2ccc(Oc3ccccc3)cc2)OC(=O)N(Nc2ccccc2)C1=O` (racemic) [famoxadone], the IC50 in assay [1] (read-out: half-maximum inhibition (IC50), previous work) is 418 nM; in assay [2], 1.4 nM. Besides, in assay [3], the “reduction in the IC50 value” was 20 fold.

Turning to `CCCCCCCCCCCC1=C(O)C(=O)c2scnc2C1=O` [UHDBT, 5-n-undecyl-6-hydroxy-4,7-dioxobenzothiazole], in assay [1], the “incubation time to reach full inhibitory capacity” value was “less than 5 min”.

Usually EC50 stands for the concentration needed to bring the measured effect to its halfway point. On to `O=C1C(O)=C([C@H]2CC[C@H](c3ccc(Cl)cc3)CC2)C(=O)c2ccccc21` [atovaquone], for which the EC50 in assay [4] was greater than 6760 nM; in assay [6] (wild-type parasites of the 106/1 line) it was 1.1 nM. Further, the half-inhibitory concentration (IC50) was 2630 nM in assay [5] and roughly 13 nM in assay [6] (P. falciparum wild-type lines).

For the molecule `CO/C(=C/C(N)=O)[C@H](C)[C@H](/C=C/c1csc(-c2csc([C@@H](C)/C=C/C=C/C(C)C)n2)n1)OC` [myxothiazol], in assay [1], the “incubation time to reach full inhibitory capacity” value is “less than 5 min”.

Take `C/C=C(C)/C=C/C=C/[C@H](OC)[C@@H](C)[C@@H](OC)[C@@H](C)CCc1oc2c(O)c(OC)cc(OC)c2c(=O)c1C` [stigmatellin]: the “incubation time to reach full inhibitory capacity” value in assay [1] is “less than 5 min”. Further, the half-maximal inhibitory concentration (IC50) in assay [5] amounted to 1 nM.
